The subject of one test is Fusarium oxysporum. In words: Synergistic Growth Inhibition Assay (MIC / FIC index, resazurin, 96-well) on Fusarium oxysporum. The class given is cell-based. How it is done: (§1) In some embodiments, the synergistic action between the pesticidal active ingredient, and the at least one C4-C10 (or alternatively C11 or C12) saturated or unsaturated aliphatic acid components of the pesticidal compositions according to embodiments of the present disclosure was tested using a Synergistic Growth Inhibition Assay, which is derived from and related to a checkerboard assay as is known in the art for testing of combinations of antimicrobial agents. In the Synergistic Growth Inhibition Assay used in accordance with some embodiments of the present disclosure, multiple dilutions of combinations of pesticidal active ingredient and at least one C4-C10 saturated or unsaturated aliphatic acid agents are tested in individual cells for inhibitory activity against a target pest or pathogenic organism. In one such embodiment, the combinations of pesticidal active ingredient and C4-C10 (or alternatively C11 or C12) saturated or unsaturated aliphatic acid agents may preferably be tested in decreasing concentrations. In a further such embodiment, the combinations of pesticidal active ingredient and C4-C10 (or alternatively C11 or C12) saturated or unsaturated aliphatic acid agents may be tested in increasing concentrations. These multiple combinations of the pesticidal active ingredient and at least one C4-C10 (or alternatively C11 or C12) saturated or unsaturated aliphatic acid agents may be prepared in 96-well microtiter plates. In one such embodiment, the Synergistic Growth Inhibition Assay then comprises rows which each contain progressively decreasing concentrations of the pesticidal active ingredient and one or more C4-C10 (or alternatively C11 or C12) saturated or unsaturated aliphatic acid agents to test for the MIC of the agents in combination at which growth of the target pest or pathogen is inhibited. Thus, each well of the microtiter plate is a unique combination of the two agents, at which inhibitory efficacy of the combination against the target pest or pathogen can be determined.
(§2) In one embodiment according to the present disclosure, for each row of microtiter cells in the Synergistic Growth Inhibition Assay, the FIC index is calculated from the lowest concentration of the pesticidal active ingredient and one or more C4-C10 saturated or unsaturated aliphatic acid agents necessary to inhibit growth of a target pest or pathogen. The FIC of each component is derived by dividing the concentration of the agent present in that well of the microtiter plate by the minimal inhibitory concentration (MIC) needed of that agent alone to inhibit growth of the target pest or pathogen. The FIC index is then the sum of these values for both agents in that well of the microtiter plate. The FIC index is calculated for each row as follows:
(§3) FICindex=MICa/MICA+MICb/MICB
(§4) Fractional inhibitory concentration indices may then used as measure of synergy. […] When the FIC index is equal to 1, the combination is additive.
(§5) Then, serial dilutions of these initial compositions in successive wells in the row of the microtiter plate were used to assay the pesticidal composition under the same conditions to determine the concentration of the composition combining the two agents corresponding to the microtiter well in which growth inhibition of the target pest or organism ceases.
Resazurin dye (also known as Alamar blue dye) was used as an indicator to determine the presence of growth or inhibition of growth of Fusarium oxysporum in the wells of the 96 well microtiter plates used in the exemplary Synergistic Growth Inhibition Assay. In addition to the color change of the resazurin dye in the presence of growth of the Fusarium oxysporum, an optical or visual examination of the microtiter well may also be made to additionally determine the presence of growth or inhibition of growth of the Fusarium oxysporum.

In another test the test system is Botrytis cinerea. In words: Synergistic Growth Inhibition Assay (MIC / FIC index, resazurin, 96-well) on Botrytis cinerea. The class given is cell-based. The settings on record: Botrytis cinerea, Botrytis cinerea. As to the method:
as §1, §2, §3, §4, §5
Similarly to as described above, Resazurin was used as an indicator of growth or inhibition of growth of Botrytis cinerea in the exemplary Synergistic Growth Inhibition Assay. In addition to the color change of the resazurin, an optical or visual examination of the microtiter well may also be made to additionally determine the presence of growth or inhibition of growth of the Botrytis cinerea.

In another test the test system is Alternaria solani. The test can be described thus: Synergistic Growth Inhibition Assay (MIC / FIC index) on Alternaria solani. The test is classed as cell-based. Particulars: for MIC: Alternaria solani, Compound B alone, read-out: MIC (B). How it is done: as §1, §2, §3, §4, §5
Alternatively, other suitable representative pest or pathogen organisms may be used to determine synergy of combinations of pesticidal active ingredient agents and one or more C4-C10 (or alternatively C11 or C12) saturated or unsaturated aliphatic acid agents in accordance with embodiments of the present disclosure. For example, other representative fungal pathogens may be used, such as but not limited to Leptosphaeria maculans, Sclerotinia spp. and Verticillium spp.

Another test relates to Trichoplusia ni. The test can be described thus: In-vitro insecticidal efficacy of Entrust SC (spinosad) with saturated and unsaturated aliphatic acids on artificial diet, Abbott and Colby formulae. The class given is in vivo, Trichoplusia ni (cabbage looper). The settings on record: Entrust SC 0.034 ppm ([…] spinosad); aliphatic acid (salt) 500 ppm; Abbott-corrected. How it is done: An artificial diet suitable for Trichoplusia ni (cabbage looper caterpillar) was prepared from a commercially available general purpose lepidoptera artificial diet premix (General Purpose Lepidoptera Diet available from Frontier Scientific Services, Newark, Del.) mixed in agar media and then heated to liquify the media. The liquid artificial diet media was then used to fill each well of a 96-well treatment plate with 200 uL of artificial diet media, which was allowed to solidify at room temperature and stored at approximately 4 C.
A 20 uL treatment sample of each treatment formulation was then placed on top of the solidified artificial diet media in each well of the 96 well plates and allowed to dry overnight. The following day, one neonate Trichoplusia ni (cabbage looper) larva (hatched from eggs obtained from the Natural Resource Canada insect research facility in Sault-Ste-Marie, ON, Canada) was added to each well of the plate, and their mortality rate was evaluated after 5 days, to determine the insecticidal efficacy of the Entrust® SC treatment alone, each exemplary unsaturated or saturated aliphatic acid (and salt) alone, and each combination of spinosad (as Entrust® SC) and unsaturated or saturated aliphatic acid (and salt). Each experiment contained 3 replicates.
While for SF<1, antagonism is present and for SF=1, the efficacy of the compounds is merely additive.

The next test deals with Sclerotinia sclerotiorum. In words: Synergistic Growth Inhibition Assay (MIC / FIC index, resazurin, 96-well) on Sclerotinia sclerotiorum. The test is classed as cell-based. Particulars: Sclerotinia sclerotiorum, […], Compound B = saturated aliphatic acid, incubation period of 7 days, read-out: MIC (B). As to the method: as §1, §2, §3, §4, §5
Similarly to as described above, Resazurin was used as an indicator of growth or inhibition of growth of Sclerotinia sclerotiorum in the exemplary Synergistic Growth Inhibition Assay. In addition to the color change of the resazurin, an optical or visual examination of the microtiter well may also be made to additionally determine the presence of growth or inhibition of growth of the Sclerotinia sclerotiorum.

Setting [1] is: Fusarium oxysporum, 48 h, Compound B alone, Fusarium oxysporum, 48 hours incubation, read-out: MIC (B).
Where [2] appears, read: Fusarium oxysporum, 96 h, Table 58, Compound B = saturated aliphatic acid, alone or in combination with oregano oil, incubation for 4 days, read-out: MIC (B).
Setting [3] is: 24 h, Table 75, Compound B = saturated aliphatic acid, alone or in combination with wintergreen oil, incubation period of 24 hours, read-out: MIC (B).
[4] abbreviates: 24 h, Table 78, Compound B = saturated aliphatic acid, alone or in combination with oregano oil, incubation period of 24 hours, read-out: MIC (B).

Like-named read-outs stand apart in the source and are kept apart here.

The record followed here is patent publication US20210352895A1, “SYNERGISTIC PESTICIDAL COMPOSITIONS AND METHODS FOR DELIVERY OF ACTIVE INGREDIENTS” (0903608 B.C. Ltd., priority 2018, published 2021).

With `CCCCCCCCC(C)C(=O)O` (stereo not shown) [2-methyldecanoic acid], the MIC amounted to 62.5 µg/mL with Fusarium oxysporum (setting [1]); 15.6 µg/mL in the test with Botrytis cinerea (48 h, Compound A alone, incubation period of 48 hours, read-out: MIC (A)); 1000 µg/mL in the test with Alternaria solani (7 days incubation); 125 µg/mL in the test with Alternaria solani (incubation period of 7 days).

For the molecule `CCCCCCC(C)C(=O)O` (stereo not shown) [2-methyloctanoic acid], the MIC in the test with Fusarium oxysporum (setting [1]) worked out at 156 µg/mL; with Alternaria solani (7 days incubation), 625 µg/mL; in the test on Alternaria solani (incubation period of 7 days), 156 µg/mL.

On to `CCCCCCC=CCC(=O)O` [3-Decenoic acid, 3-decenoic acid], for which, in the test on Fusarium oxysporum (Compound B (aliphatic acid) alone, Fusarium oxysporum, incubation period of 48 hours), the “MIC (B)” value was 312.5 µg/mL. Further, the “Observed Efficacy, W (%)” value in the test on Trichoplusia ni was found to be 0%.

With `CCCCCCCCCC(=O)O` [Decanoic acid, decanoic acid], the MIC in the test with Fusarium oxysporum (Fusarium oxysporum, 24 h, Table 53, Compound B = saturated aliphatic acid, alone or in combination with wintergreen oil, incubation for 24 hours, read-out: MIC (B)) is 62.5 µg/mL; in the test on Fusarium oxysporum (Fusarium oxysporum, 96 h, Compound B alone, incubation for 4 days, read-out: MIC (B)), 62.5 µg/mL. In the test on Trichoplusia ni, the “Observed Efficacy, W (%)” value amounted to 0%.

On to `CCCCCCC(=O)O` [Heptanoic acid, heptanoic acid], for which the MIC in the test on Fusarium oxysporum (Fusarium oxysporum, 96 h, Table 54, Compound B = saturated aliphatic acid, alone or in combination with peppermint oil, incubation for 4 days, read-out: MIC (B)) turned out to be 312 µg/mL; in the test with Fusarium oxysporum (Fusarium oxysporum, 96 h, Table 55, Compound B = saturated aliphatic acid, alone or in combination with spearmint oil, incubation for 4 days, read-out: MIC (B)) it was 156 µg/mL; with Fusarium oxysporum (setting [2]), 78.1 µg/mL; with Botrytis cinerea (setting [3]) it was 39.1 µg/mL; in the test with Botrytis cinerea (setting [4]), 78.1 µg/mL; in the test on Botrytis cinerea (96 h, Table 76, Compound B = saturated aliphatic acid, alone or in combination with spearmint oil, incubation period of 4 days, read-out: MIC (B)) it was 78.1 µg/mL. In addition, the MIC stood at 78.1 µg/mL in the test on Sclerotinia sclerotiorum (Table 68, alone or in combination with clove leaf oil) and 78.1 µg/mL in the test on Sclerotinia sclerotiorum (Table 70, alone or in combination with rosemary oil). Also, the “Observed Efficacy, W (%)” value in the test on Trichoplusia ni was 9.1%.

With `CCCCCC(=O)O` [Hexanoic acid, hexanoic acid], the MIC with Fusarium oxysporum (Fusarium oxysporum, 24 h, read-out: MIC (B), Table 51, Compound B = saturated aliphatic acid, alone or in combination with thyme oil, incubation for 24 hours) was 78.1 µg/mL; with Fusarium oxysporum (Fusarium oxysporum, 24 h, read-out: MIC (B), Table 52, Compound B = saturated aliphatic acid, alone or in combination with garlic oil, incubation for 24 hours), 156 µg/mL; in the test with Fusarium oxysporum (Fusarium oxysporum, 96 h, read-out: MIC (B), Table 54, Compound B = saturated aliphatic acid, alone or in combination with peppermint oil, incubation for 4 days) it was 156 µg/mL; in the test with Fusarium oxysporum (Fusarium oxysporum, 96 h, read-out: MIC (B), Table 58, Compound B = saturated aliphatic acid, alone or in combination with oregano oil, incubation for 4 days), 156 µg/mL; in the test on Botrytis cinerea (24 h, read-out: MIC (B), Table 75, Compound B = saturated aliphatic acid, alone or in combination with wintergreen oil, incubation period of 24 hours) it was 39.1 µg/mL; in the test on Botrytis cinerea (24 h, read-out: MIC (B), Table 78, Compound B = saturated aliphatic acid, alone or in combination with oregano oil, incubation period of 24 hours) it was 156 µg/mL. Also, the MIC worked out at 312 µg/mL in the test with Botrytis cinerea (96 h, read-out: MIC (B), Table 74, Compound B = saturated aliphatic acid, alone or in combination with thyme oil, incubation period of 4 days) and 312 µg/mL in the test with Botrytis cinerea (96 h, read-out: MIC (B), Table 76, Compound B = saturated aliphatic acid, alone or in combination with spearmint oil, incubation period of 4 days). Besides, in the test on Botrytis cinerea (Compound B (aliphatic acid) alone, 2-fold dilutions, incubation period of 48 hours), the “MIC (B)” value was 78.12 µg/mL. The “Observed Efficacy, W (%)” value in the test on Trichoplusia ni is 27.3%.

For the molecule `CCCCCCCCC(=O)O` [Nonanoic acid, nonanoic acid], the MIC with Fusarium oxysporum (Fusarium oxysporum, 24 h, read-out: MIC (B), Table 53, Compound B = saturated aliphatic acid, alone or in combination with wintergreen oil, incubation for 24 hours) was found to be 156 µg/mL; with Fusarium oxysporum (setting [2]), 78.1 µg/mL; in the test with Fusarium oxysporum (Fusarium oxysporum, 96 h, read-out: MIC (B), Table 55, Compound B = saturated aliphatic acid, alone or in combination with spearmint oil, incubation for 4 days) it was 156 µg/mL; with Botrytis cinerea (setting [3]) it was 39.1 µg/mL; in the test with Botrytis cinerea (setting [4]) it was 78.1 µg/mL. In addition, in the test on Trichoplusia ni, the “Observed Efficacy, W (%)” value is 0%.

Take `CCCCCCCC(=O)[O-].[K+]` [Octanoic acid, K-salt]: the “Observed Efficacy, W (%)” value in the test on Trichoplusia ni was 0%.

As for `CCCCCCCC(=O)O` [Octanoic acid, octanoic acid], the “Observed Efficacy, W (%)” value in the test with Trichoplusia ni is on record as 4.5%.

In the case of `CCCCCCC/C=C/C(=O)O` [Trans-2 decenoic acid], the “MIC (B)” value in the test on Botrytis cinerea (Compound B alone, incubation period of 48 hours) came to 39.06 µg/mL. In the test with Trichoplusia ni, the “Observed Efficacy, W (%)” value was found to be 0%.

For the molecule `CCCCCC/C=C/C(=O)O` [Trans-2 nonenoic acid], the “Observed Efficacy, W (%)” value with Trichoplusia ni is given as 3.6%.

As for `CCCCCCCC/C=C/C(=O)O` [Trans-2 undecenoic acid], in the test with Trichoplusia ni, the “Observed Efficacy, W (%)” value is 27.3%.

As to `CCC/C=C/C(=O)O` [Trans-2-hexenoic acid, trans-2-hexenoic acid], in the test with Fusarium oxysporum (Compound B alone, 24 hour incubation), the “MIC (B)” value is 312.5 µg/mL. In the test with Trichoplusia ni, the “Observed Efficacy, W (%)” value is reported as 0%.

With `CCCC/C=C/CC(=O)O` [Trans-3 octenoic acid], the “Observed Efficacy, W (%)” value in the test with Trichoplusia ni turned out to be 4.5%.

Turning to `CC/C=C/CC(=O)O` [Trans-3-hexenoic acid, trans-3-hexenoic acid], the “Observed Efficacy, W (%)” value in the test with Trichoplusia ni came to 0%.

Turning to Mancozeb [reference compound], the “MIC (A)” value in the test with Botrytis cinerea (Compound A alone, incubation period of 48 hours) stood at 31.25 µg/mL; in the test with Alternaria solani (Compound A alone, 7 days incubation), 500 µg/mL.
